From patent US9302999B2, “Substituted triazoles as herbicides” (E. I. DU PONT DE NEMOURS AND COMPANY, priority 2012, dated 2016)

Tests used:
Format in all cases: in vivo
[1] = test system: bromegrass, downy (downy bromegrass, Bromus tectorum); assay: Test D pre-/postemergence: bromegrass, downy
In short: (§1)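 Visual 0–100 rating versus untreated controls (0 no effect, 100 complete control), taken 14 to 21 days after treatment in a controlled growth environment. Preemergence: silt loam soil. Postemergence: peat moss/vermiculite medium, plants 2 to 18 cm, 1- to 4-leaf stage. Solvent mixture with surfactant.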

[2] = test system: barley, spring (spring barley, Hordeum vulgare); assay: Test D pre-/postemergence: barley, spring
In short: as §1

[3] = test system: poinsettia, wild (wild poinsettia, Euphorbia heterophylla); assay: Test F pre-/postemergence: poinsettia, wild
In short: (§2)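 Visual response scores, 0 meaning no effect and 100 complete control, were assigned against untreated controls 14 to 21 days after treatment. Test chemicals in a surfactant-containing non-phytotoxic solvent were applied preemergence to seeded silt loam soil or postemergence to 2–18 cm plants in peat-based medium.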

[4] = test system: field violet (Viola arvensis); assay: Test D pre-/postemergence: field violet
In short: as §1

[5] = test system: nutsedge, yellow (yellow nutsedge, Cyperus esculentus); assay: Test F pre-/postemergence: nutsedge, yellow; settings: Preemergence
In short: as §2

[6] = test system: radish, wild (wild radish, Raphanus raphanistrum); assay: Test D pre-/postemergence: radish, wild
In short: as §1

Oilseed Rape = assay: Test C preemergence: oilseed rape; settings: scale 0 (no effect) to 100 (complete control)
[7] = Postemergence, 31 g ai/ha, scale 0 to 100 (0 no effect, 100 complete control)
[8] = Postemergence, 62 g ai/ha, scale 0 to 100 (0 no effect, 100 complete control)
[9] = Postemergence, 125 g ai/ha, scale 0 to 100, 0 no effect, 100 complete control
[10] = Postemergence, 16 g ai/ha, scale 0 to 100
[11] = Preemergence, 16 g ai/ha, scale 0 to 100, 0 no effect, 100 complete control
[12] = Preemergence, 31 g ai/ha, scale 0 to 100, 0 no effect, 100 complete control
[13] = Preemergence, 62 g ai/ha, scale 0 to 100
[14] = Preemergence, 125 g ai/ha, scale 0 to 100
[15] = Preemergence, 250 g ai/ha, scale 0 to 100
[16] = 16 g ai/ha, scale 0 to 100, 0 no effect, 100 complete control
[17] = 31 g ai/ha, scale 0 to 100, 0 no effect, 100 complete control

## Cc1nn(-c2ccc(C(F)(F)F)c(F)c2)nc1Oc1ccnc(C(F)(F)F)c1 [Compound 148]
[1]; [7]
  Plant response rating: Bromegrass, Downy: 5
[1]; [8]
  Plant response rating: Bromegrass, Downy: 15
[1]; [9]
  Plant response rating: Bromegrass, Downy: 20
[1]; [10]
  Plant response rating, Bromegrass, Downy: 5
[1]; [11]
  Plant response rating, Bromegrass, Downy: 0
[1]; [12]
  Plant response rating, Bromegrass, Downy: 0
[1]; [13]
  Plant response rating, Bromegrass, Downy: 10
[1]; [14]
  Plant response rating, Bromegrass, Downy: 20
[2]; [7]
  Plant response rating: Barley, Spring: 15
[2]; [8]
  Plant response rating: Barley, Spring: 20
[2]; [9]
  Plant response rating: Barley, Spring: 25
[2]; [10]
  Plant response rating, Barley, Spring: 10
[2]; [11]
  Plant response rating, Barley, Spring: 0
[2]; [12]
  Plant response rating, Barley, Spring: 0
[2]; [13]
  Plant response rating, Barley, Spring: 5
[2]; [14]
  Plant response rating, Barley, Spring: 5
[3]; [11]
  Plant response rating, Poinsettia, Wild: 0
[3]; [12]
  Plant response rating, Poinsettia, Wild: 0
[3]; [14]
  Plant response rating, Poinsettia, Wild: 20
[3]; [15]
  Plant response rating, Poinsettia, Wild: 100
[4]; [7]
  Plant response rating: Field Violet: 95
[4]; [8]
  Plant response rating: Field Violet: 95
[4]; [9]
  Plant response rating: Field Violet: 95
[4]; [10]
  Plant response rating, Field Violet: 90
[4]; [11]
  Plant response rating, Field Violet: 90
[4]; [12]
  Plant response rating, Field Violet: 100
[4]; [13]
  Plant response rating, Field Violet: 95
[4]; [14]
  Plant response rating, Field Violet: 100
[5]; [16]
  Plant response rating, Nutsedge, Yellow: 0
[5]; [17]
  Plant response rating, Nutsedge, Yellow: 0
[5]; 125 g ai/ha, scale 0 to 100
  Plant response rating, Nutsedge, Yellow: 20
[5]; 250 g ai/ha, scale 0 to 100
  Plant response rating, Nutsedge, Yellow: 35
[6]; [7]
  Plant response rating: Radish, Wild: 100
[6]; [8]
  Plant response rating: Radish, Wild: 100
[6]; [9]
  Plant response rating: Radish, Wild: 100
[6]; [10]
  Plant response rating, Radish, Wild: 90
[6]; [11]
  Plant response rating, Radish, Wild: 10
[6]; [12]
  Plant response rating, Radish, Wild: 20
[6]; [13]
  Plant response rating, Radish, Wild: 100
[6]; [14]
  Plant response rating, Radish, Wild: 100

## CCc1nn(-c2ccc(C(F)(F)F)cc2)nc1Cc1ccnc(C(F)(F)F)c1 [Compound 155]
[1]; [7]
  Plant response rating: Bromegrass, Downy: 15
[1]; [8]
  Plant response rating: Bromegrass, Downy: 35
[1]; [9]
  Plant response rating: Bromegrass, Downy: 55
[1]; [10]
  Plant response rating, Bromegrass, Downy: 5
[1]; [11]
  Plant response rating, Bromegrass, Downy: 0
[1]; [12]
  Plant response rating, Bromegrass, Downy: 5
[1]; [13]
  Plant response rating, Bromegrass, Downy: 10
[1]; [14]
  Plant response rating, Bromegrass, Downy: 35
[2]; [7]
  Plant response rating: Barley, Spring: 15
[2]; [8]
  Plant response rating: Barley, Spring: 25
[2]; [9]
  Plant response rating: Barley, Spring: 35
[2]; [10]
  Plant response rating, Barley, Spring: 10
[2]; [11]
  Plant response rating, Barley, Spring: 0
[2]; [12]
  Plant response rating, Barley, Spring: 5
[2]; [13]
  Plant response rating, Barley, Spring: 5
[2]; [14]
  Plant response rating, Barley, Spring: 10
[3]; [14]
  Plant response rating, Poinsettia, Wild: 80
[3]; [15]
  Plant response rating, Poinsettia, Wild: 100
[4]; [7]
  Plant response rating: Field Violet: 100
[4]; [8]
  Plant response rating: Field Violet: 100
[4]; [9]
  Plant response rating: Field Violet: 95
[4]; [10]
  Plant response rating, Field Violet: 95
[4]; [11]
  Plant response rating, Field Violet: 90
[4]; [12]
  Plant response rating, Field Violet: 95
[4]; [13]
  Plant response rating, Field Violet: 95
[4]; [14]
  Plant response rating, Field Violet: 100
[5]; 125 g ai/ha, scale 0 to 100
  Plant response rating, Nutsedge, Yellow: 25
[5]; 250 g ai/ha, scale 0 to 100
  Plant response rating, Nutsedge, Yellow: 30
[6]; [7]
  Plant response rating: Radish, Wild: 95
[6]; [8]
  Plant response rating: Radish, Wild: 95
[6]; [9]
  Plant response rating: Radish, Wild: 100
[6]; [10]
  Plant response rating, Radish, Wild: 85
[6]; [11]
  Plant response rating, Radish, Wild: 100
[6]; [12]
  Plant response rating, Radish, Wild: 95
[6]; [13]
  Plant response rating, Radish, Wild: 100
[6]; [14]
  Plant response rating, Radish, Wild: 100

## FCc1nn(-c2ccc(F)cc2)nc1Oc1ccnc(C(F)(F)F)c1 [Compound 160]
Oilseed Rape; 16 g ai/ha
  Plant response rating, Oilseed Rape: 0

## CCOc1nn(-c2ccc(C(F)(F)F)cc2)nc1Cc1ccnc(C(F)(F)F)c1 [Compound 164, 4-[[5-ethoxy-2-[4-(trifluoromethyl)phenyl]-2H-1,2,3-triazol-4-yl]methyl]-2-(trifluoromethyl)pyridine]
Oilseed Rape; 31 g ai/ha
  Plant response rating, Oilseed Rape: 5

## CCCc1nn(-c2ccc(F)cc2)nc1Oc1ccnc(C(F)(F)F)c1 [Compound 168]
Oilseed Rape; 31 g ai/ha
  Plant response rating, Oilseed Rape: 100

## CCc1nn(-c2ccc(C(F)(F)F)cc2)nc1Oc1ccnc(C(F)(F)F)c1 [Compound 169]
Oilseed Rape; 31 g ai/ha
  Plant response rating, Oilseed Rape: 50
[3]; Postemergence, 250 g ai/ha, scale 0 to 100
  Plant response rating, Poinsettia, Wild: 85
[3]; [10]
  Plant response rating, Poinsettia, Wild: 50
[3]; Postemergence, 31 g ai/ha, scale 0 to 100
  Plant response rating, Poinsettia, Wild: 60
[3]; Postemergence, 62 g ai/ha, scale 0 to 100
  Plant response rating, Poinsettia, Wild: 60
[3]; Postemergence, 125 g ai/ha, scale 0 to 100
  Plant response rating, Poinsettia, Wild: 70
[3]; [11]
  Plant response rating, Poinsettia, Wild: 0
[3]; [12]
  Plant response rating, Poinsettia, Wild: 0
[3]; [14]
  Plant response rating, Poinsettia, Wild: 40
[3]; [15]
  Plant response rating, Poinsettia, Wild: 98
[5]; [16]
  Plant response rating, Nutsedge, Yellow: 0
[5]; [17]
  Plant response rating, Nutsedge, Yellow: 20
[5]; 125 g ai/ha, scale 0 to 100
  Plant response rating, Nutsedge, Yellow: 25
[5]; 250 g ai/ha, scale 0 to 100
  Plant response rating, Nutsedge, Yellow: 25
